Laboratory results: PubChem BioAssay (NCI)
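Briefly, cells in 96-well plates were exposed to five compound concentrations for 48 h, and endpoints were estimated by linear interpolation. TGI marks complete inhibition of growth.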

Tests used:
Experiment in all cases: NCI tumour cell line growth inhibition, 48 h
[1] = test system: HOP-92 NSCLC
[2] = test system: SK-MEL-5 melanoma
[3] = test system: M14 melanoma
[4] = test system: K-562 leukemia
[5] = test system: SF-295 CNS
[6] = test system: OVCAR-3 ovarian
[7] = test system: LOX IMVI melanoma
[8] = test system: HCT-15 colon
[9] = test system: MALME-3M melanoma
[10] = test system: SN12C renal
[11] = test system: MDA-MB-435
[12] = test system: RXF 393 renal
[13] = test system: NCI-H460 lung
[14] = test system: MDA-MB-231 breast
[15] = test system: HT29 colon
[16] = test system: BT-549 breast
[17] = test system: ACHN renal
[18] = test system: U251 CNS
[19] = test system: MOLT-4 leukemia
[20] = test system: 786-0 renal
[21] = test system: A498 renal
[22] = test system: PC-3 prostate
[23] = test system: MCF7 breast
[24] = test system: HCT-116 colon
[25] = test system: HCC-2998 colon
[26] = test system: SNB-75 CNS
[27] = test system: COLO 205 colon
[28] = test system: IGROV1 ovarian
[29] = test system: NCI-H522 lung
[30] = test system: SW-620 colon
[31] = test system: CAKI-1 renal
[32] = test system: MDA-N
[33] = test system: DU-145 prostate
[34] = test system: T-47D breast
[35] = test system: SR leukemia
[36] = test system: OVCAR-5 ovarian
[37] = test system: HOP-62 NSCLC
[38] = test system: HL-60(TB) leukemia
[39] = test system: SF-268 CNS
[40] = test system: TK-10 renal
[41] = test system: NCI/ADR-RES ovarian
[42] = test system: RPMI-8226 leukemia
[43] = test system: HS 578T breast
[44] = test system: SK-MEL-28 melanoma
[45] = test system: CCRF-CEM leukemia
[46] = test system: OVCAR-8 ovarian
[47] = test system: EKVX NSCLC
[48] = test system: SK-OV-3 ovarian
[49] = test system: KM12 colon
[50] = test system: NCI-H23 lung
[51] = test system: SK-MEL-2 melanoma
[52] = test system: A549 NSCLC
[53] = test system: UACC-62 melanoma
[54] = test system: SF-539 CNS
[55] = test system: UACC-257 melanoma
[56] = test system: OVCAR-4 ovarian
[57] = test system: UO-31 renal
[58] = test system: NCI-H226 lung
[59] = test system: SNB-19 CNS
[60] = test system: SNB-78 CNS
[61] = test system: DLD-1 colon
[62] = test system: M19-MEL melanoma
[63] = test system: KM20L2 colon
[64] = test system: LXFL 529 NSCLC
[65] = test system: HOP-18 NSCLC
[66] = test system: XF 498 CNS
[67] = test system: DMS 273 small cell lung

CC[C@@H]1C(=O)OC[C@@H]1Cc1cncn1C
TGI [1]: > 100 µM
TGI [2]: > 100 µM
TGI [3]: > 100 µM
TGI [4]: > 100 µM
TGI [5]: > 100 µM
TGI [6]: > 100 µM
TGI [7]: > 100 µM
TGI [8]: > 100 µM
TGI [9]: > 100 µM
TGI [10]: > 100 µM
TGI [11]: > 100 µM
TGI [12]: > 100 µM
TGI [13]: > 100 µM
TGI [14]: > 100 µM
TGI [15]: > 100 µM
TGI [16]: > 100 µM
TGI [17]: > 100 µM
TGI [18]: > 100 µM
TGI [19]: > 100 µM
TGI [20]: > 100 µM
TGI [21]: > 100 µM
TGI [22]: > 100 µM
TGI [23]: > 100 µM
TGI [24]: > 100 µM
TGI [25]: > 100 µM
TGI [26]: > 100 µM
TGI [27]: > 100 µM
TGI [28]: > 100 µM
TGI [29]: > 100 µM
TGI [30]: > 100 µM
TGI [31]: > 100 µM
TGI [32]: > 100 µM
TGI [33]: > 100 µM
TGI [34]: > 100 µM
TGI [35]: > 100 µM
TGI [36]: > 100 µM
TGI [37]: > 100 µM
TGI [38]: > 100 µM
TGI [39]: > 100 µM
TGI [40]: > 100 µM
TGI [41]: > 100 µM
TGI [42]: > 100 µM
TGI [43]: > 100 µM
TGI [44]: > 100 µM
TGI [45]: > 100 µM
TGI [46]: > 100 µM
TGI [47]: > 100 µM
TGI [48]: > 100 µM
TGI [49]: > 100 µM
TGI [50]: > 100 µM
TGI [51]: > 100 µM
TGI [52]: > 100 µM
TGI [53]: > 100 µM
TGI [54]: > 100 µM
TGI [55]: > 100 µM
TGI [56]: > 100 µM
TGI [57]: > 100 µM
TGI [58]: > 100 µM
TGI [59]: > 100 µM

CC(=O)OC[C@]1(C)CCCC2(C)C1CCC1C=C(C)[C@H]3CCC12C3 (some centres undefined)
TGI [2]: > 100 µM
TGI [3]: > 100 µM
TGI [4]: > 100 µM
TGI [5]: > 100 µM
TGI [6]: > 100 µM
TGI [7]: > 100 µM
TGI [8]: > 100 µM
TGI [9]: > 100 µM
TGI [10]: > 100 µM
TGI [12]: > 100 µM
TGI [13]: > 100 µM
TGI [15]: > 100 µM
TGI [17]: > 100 µM
TGI [60]: > 100 µM
TGI [18]: > 100 µM
TGI [19]: > 100 µM
TGI [20]: > 100 µM
TGI [24]: > 100 µM
TGI [25]: > 100 µM
TGI [26]: 93.2 µM
TGI [27]: > 100 µM
TGI [28]: > 100 µM
TGI [29]: 75 µM
TGI [30]: > 100 µM
TGI [31]: > 100 µM
TGI [61]: > 100 µM
TGI [35]: > 100 µM
TGI [36]: > 100 µM
TGI [37]: > 100 µM
TGI [38]: > 100 µM
TGI [39]: > 100 µM
TGI [40]: > 100 µM
TGI [62]: > 100 µM
TGI [42]: > 100 µM
TGI [63]: > 100 µM
TGI [44]: > 100 µM
TGI [45]: > 100 µM
TGI [64]: > 100 µM
TGI [46]: > 100 µM
TGI [48]: > 100 µM
TGI [49]: > 100 µM
TGI [50]: > 100 µM
TGI [52]: > 100 µM
TGI [53]: > 100 µM
TGI [54]: 66.8 µM
TGI [55]: > 100 µM
TGI [56]: > 100 µM
TGI [57]: > 100 µM
TGI [58]: > 100 µM
TGI [59]: > 100 µM

C=C1C(=O)OC2C1CCC(C)C1C=CC(=O)C12C (centres undefined)
TGI [1]: 13.3 µM
TGI [2]: 12 µM
TGI [3]: 4.85 µM
TGI [65]: 20.7 µM
TGI [4]: 11.3 µM
TGI [5]: 18.1 µM
TGI [6]: 3.37 µM
TGI [7]: 5.25 µM
TGI [8]: 4.11 µM
TGI [9]: 7.47 µM
TGI [10]: 13.5 µM
TGI [11]: 3.34 µM
TGI [12]: 4.39 µM
TGI [13]: 18.9 µM
TGI [14]: 4.83 µM
TGI [66]: 13.4 µM
TGI [15]: 4.53 µM
TGI [16]: 3.46 µM
TGI [17]: 3.25 µM
TGI [60]: 23.3 µM
TGI [67]: 23.5 µM
TGI [18]: 29.5 µM
TGI [19]: 10.4 µM
TGI [20]: 4.19 µM
TGI [21]: 26.7 µM
TGI [22]: 17.3 µM
TGI [23]: 16.5 µM
TGI [24]: 3.91 µM
TGI [25]: 26.6 µM
TGI [26]: 26.8 µM
TGI [27]: 5.74 µM
TGI [28]: 19.4 µM
TGI [29]: 2.39 µM
TGI [30]: 4.68 µM
TGI [31]: 6.75 µM
TGI [32]: 3.88 µM
TGI [33]: 7.36 µM
TGI [61]: 4.19 µM
TGI [34]: 4.88 µM
TGI [35]: 9.73 µM
TGI [36]: 13.8 µM
TGI [37]: 41.1 µM
TGI [38]: 4.85 µM
TGI [39]: 39.5 µM
TGI [40]: 10.6 µM
TGI [62]: 14.4 µM
TGI [42]: > 25.3 µM
TGI [63]: 14.6 µM
TGI [43]: 15.4 µM
TGI [44]: 4.93 µM
TGI [45]: 8.54 µM
TGI [64]: 3.35 µM
TGI [47]: 25.2 µM
TGI [48]: 98.8 µM
TGI [49]: 5.96 µM
TGI [50]: 10.2 µM
TGI [51]: 17.5 µM
TGI [52]: 41.9 µM
TGI [53]: 4.11 µM
TGI [54]: 8.33 µM
TGI [55]: 4.61 µM
TGI [56]: 16.6 µM
TGI [57]: 9.26 µM
TGI [58]: 13 µM
TGI [59]: 46.1 µM
